Series [1] deals with L. guyanensis (LgyLRV1+). As to the kind of experiment: Drug-inhibition test: growth of LgyLRV1+ parasites. The series is classed as cell-based, Leishmania guyanensis. The procedure: These compounds were examined for their ability to inhibit the growth of LgyLRV1^+ and virus levels by LRV1 capsid flow cytometry.
Most studies were performed using luciferase-expressing transfectants of L. guyanensis (MHOM/BR/78/M4147) described previously [LRV1^+ LgyM4147/SSU:IR2SAT-LUC(b)c3 and LRV^−LgyM4147/pX63HYG/SSU:IR2SAT-LUC(b)c4] (54); these lines are termed LgyLRV1^+ and LgyLRV1^−, respectively. Two strains of LRV1^+L. braziliensis were examined: LEM2780 (MHOM/BO/90/CS) and LEM3874 (MHOM/BO/99/IMT252 no. 3) (12). Parasites were grown in Schneider's media (Sigma Aldrich, St. Louis, Mo., USA) prepared according to the supplier's instructions with pH adjusted to 6.5 and supplemented with 0.76 mM hemin, 2 μg/mL biopterin, 50 U/mL penicillin, 50 μg/mL streptomycin, and 10% (vol/vol) heat-inactivated FBS. Cell concentrations were determined using a Coulter Counter ([…], Indianapolis, Ind., USA).
(§1) Parasites were inoculated at 2×10^5 cells/mL into Schneider's media lacking supplemental adenine.

The test system of series [2] is LRV1 (LgyLRV1 capsid levels). In words: microbe, parasite or virus in culture.
Description: Because LRV1 (like most Totiviridae) is not shed from the cell (33, 34), we developed a flow cytometric assay to measure intracellular LRV1 capsid levels on a per cell basis. To detect LRV1 we used binding to a rabbit anti-LgyLRV1 capsid antiserum (35) followed by detection with Alexa Fluor488-conjugated goat anti-rabbit IgG.
as §1
For capsid flow cytometry, 10^7 cells were fixed at room temperature using 2% (wt/vol) paraformaldehyde (Thermo Fisher Scientific) in PBS for 2 minutes. They were then incubated in blocking buffer [10% (vol/vol) normal goat serum (Vector Laboratories, Burlingame, Calif., USA) and 0.2% TRITON X-100 in PBS] for 30 minutes at room temperature. Anti-LgyLRV1 capsid antibody (35) was added (1:20,000 dilution) and incubated at room temperature for 1 hour. After two washes with PBS, cells were resuspended in 200 μL PBS with Alexa Fluor488-labeled goat anti-rabbit IgG (Alexafluor, Invitrogen; 1:1,000; or Thermo Fisher Scientific; 1:2,000 dilution), and incubated 1 hour at room temperature. After two additional washes with PBS, cells were subjected to flow cytometry, gating for single cells using forward and side scatter and the data analyzed using […] software (BD Bioscience, San Jose, Calif., USA).

The conditions of series [3]: animal models; cited from earlier work.
The test system of series [4] is Zika virus. The following applies: cultured mammalian cells; read-out: EC50 against Zika virus; cited from earlier work.
The target of series [5] is Lgy LRV1 RDRP (Leishmania RNA virus 1 - 4, UniProt Q02382). In words: RDRP assay of purified virions, [α-32P]UTP incorporation. Type of series: biochemical, Leishmania RNA virus 1 (Lgy strain M4147). The following applies: highest concentration tested 600 μM. The procedure:
RDRP assays were carried out with LRV1 virions purified from Lgy strain M4147 by an established cesium chloride (CsCl) equilibrium ultracentrifugation procedure {Widmer, 1989; Widmer, 1990}. Following separation, virus particles were detected and quantified by their reactivity with an anti-capsid antibody (FIG. 21). We reproducibly observed three overlapping ‘peaks’, designated low-, medium-, and high-density (LD, MD and HD) in order of increasing density. […] The densities of the Lgy LRV1 LD, MD and HD peaks were 1.29, 1.36 and 1.41 g/mL, in good agreement with the densities of L-A virus particles bearing ssRNA- and dsRNA- (1.31 and 1.41 g/mL, respectively) {Esteban, 1986}. […]
To measure RDRP activity, purified virions were allowed to incorporate [α-^32P]UTP in the presence of the remaining nucleoside triphosphates for 1 hour, a time chosen to allow one round of transcription or replication of the viral genome {Widmer, 1990}. RNA was purified and separated by native gel electrophoresis, and the products were visualized and quantified. […]
RDRP activity of purified virions was measured using an [α-^32P]UTP incorporation assay described previously{Widmer, 1990}. […] The standards lane was excised and stained with ethidium bromide, while the radiolabeled products were detected by exposing an imaging plate for 24 hours and reading it with a FLA-5100 phosphoimager (Fujifilm, Tokyo, Japan). […]

Each structure is given as a SMILES string. “Also recorded” adds a separate entry of the source.

As a reminder, the EC50 is the concentration at which the effect is half-maximal. A word on the inhibition: it is the percentage by which the read-out fell short of the control.

Sequence of Lgy LRV1 RDRP (Q02382 whole entry): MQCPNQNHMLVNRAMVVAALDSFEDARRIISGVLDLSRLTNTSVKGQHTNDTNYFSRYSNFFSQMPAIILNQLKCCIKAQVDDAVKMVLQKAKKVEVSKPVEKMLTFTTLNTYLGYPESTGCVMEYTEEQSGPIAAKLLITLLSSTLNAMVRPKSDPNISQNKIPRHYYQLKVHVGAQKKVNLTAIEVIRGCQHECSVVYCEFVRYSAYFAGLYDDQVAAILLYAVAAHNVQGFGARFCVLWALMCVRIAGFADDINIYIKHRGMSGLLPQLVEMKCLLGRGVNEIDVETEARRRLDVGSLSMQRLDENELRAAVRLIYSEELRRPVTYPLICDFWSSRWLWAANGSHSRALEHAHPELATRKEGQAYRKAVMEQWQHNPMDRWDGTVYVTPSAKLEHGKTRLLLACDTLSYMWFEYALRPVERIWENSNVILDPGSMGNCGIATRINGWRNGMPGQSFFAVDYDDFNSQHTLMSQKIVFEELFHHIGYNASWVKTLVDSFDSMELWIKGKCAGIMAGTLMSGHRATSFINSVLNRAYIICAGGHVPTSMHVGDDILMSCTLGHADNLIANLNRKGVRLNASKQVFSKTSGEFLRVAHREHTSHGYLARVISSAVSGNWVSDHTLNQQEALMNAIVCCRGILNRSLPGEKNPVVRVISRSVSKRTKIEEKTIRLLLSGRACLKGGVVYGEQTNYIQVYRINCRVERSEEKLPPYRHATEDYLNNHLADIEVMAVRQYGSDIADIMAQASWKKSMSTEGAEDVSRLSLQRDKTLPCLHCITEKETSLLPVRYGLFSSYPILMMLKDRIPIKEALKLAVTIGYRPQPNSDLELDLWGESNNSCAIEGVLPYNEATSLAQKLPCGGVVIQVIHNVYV

For `C[C@@]1(O)[C@H](O)[C@@H](CO)O[C@H]1n1ccc2c(N)ncnc21` [2′C-methyl-7-deaza-adenosine, 7-deaza-2′-C-methyladenosine], the activity at 100 µM was 20% in series [1] (Leishmania guyanensis, 48 h, LgyLRV1+, tested at 100 μM, growth after 2 days, read-out: Percent control (density)) and 10% in series [2] (48 h, read-out: Percent control (LRV1 capsid)). In addition, the EC50 was > 100 µM in series [1] (Leishmania guyanensis, L. guyanensis, relative cellular growth rate, titration, read-out: EC50 for parasite growth); ~5 µM in series [2] (read-out: EC50 for LRV1 capsid inhibition); 10 µM in series [4]. Further, in series [1] (Leishmania guyanensis, tested at 100 μM, read-out: Inhibition of parasite density), the inhibition at 100 µM was 90%. For the same molecule, in series [1] (LgyLRV1+, tested at 100 μM, growth after 2 days), the “Density (cells/mL)” value worked out at 3.38E+6 cells/mL. Also, the “Selectivity for LRV1 versus L. guyanensis growth inhibition” value in series [2] (EC50 growth vs EC50 LRV1 capsid) is recorded as > 20 fold. In addition, in series [2] (LgyLRV1+, tested at 100 μM, 2 days), the “LRV1 capsid (geometric mean FU)” value is 27 FU. In series [2] (tested at 100 μM), the “Reduction in LRV1 capsid levels” value came out at 12 fold. Besides, the Serum half-life in series [3] is 1.6 h.

For the molecule `Nc1ncnc2c1ncn2[C@H]1C[C@H](O)[C@@H](COP(=O)(O)OP(=O)(O)OP(=O)(O)O)O1` [dATP], the “Inhibition of RDRP activity, in words” value in series [5] was “failed to inhibit; also recorded: completely inactive”.

The values above are taken from patent US20190307783A1, “USE OF ANTIVIRALS TO INHIBIT PROTOZOAN VIRUSES” (priority 2016, published 2019).
